Two compounds from patent US20160303127A1, “COMBINATION THERAPY WITH C-MET AND EGFR ANTAGONISTS” (Genentech, Inc., priority 2008, published 2016) can be followed below.

The test system of assay [1] is EBC-1 shMet-4.5 tumors. The assay is described as follows: Combination efficacy of erlotinib with c-met knockdown (Dox) in the EBC-1 shMet-4.5 NSCLC xenograft model. Type of assay: in vivo, nude mice (nu/nu). Conditions: EBC-1 shMet-4.5 xenograft. The protocol:
Test material. Erlotinib (Tarceva™) was provided by OSI Pharmaceuticals to the Formulations Department at Genentech and was weighed out along with a sufficient amount of vehicle (methylcellulose tween (MCT)). Materials were stored in a refrigerator set to maintain a temperature range of 4° C. to 8° C. Anti-c-met monovalent monoclonal antibody MetMAb (rhuOA5D5v2) (WO2007/063816) was provided by the Antibody Engineering Department at Genentech, Inc., in a clear liquid form. The EBC-1 cell line was obtained from Japanese Collection of Research Bioresources (JCRB). Species. Forty nude mice (nu/nu) were obtained from Charles River Laboratories (CRL) and were acclimatized for at least one week prior to being put on study. Animals were housed in ventilated caging systems in rooms with filters supplying High-Efficiency Particulate Air (HEPA). Only animals that appeared to be healthy and were free of obvious abnormalities were used for the study. Study design. EBC-1 cells were cultured in growth media that consisted of RPMI 1640 media (Invitrogen), 2 mM L-glutamine, and 10% fetal bovine serum. To prepare cells for inoculation into mice, cells were trypsinized, washed with ten milliliters of sterile 1× phosphate buffered saline (PBS). A subset of cells was counted by trypan blue exclusion and the remainder of cells was resuspended in 100 μl of sterile 1× PBS to a concentration of 5×10^7 cells per milliliter. Mice were inoculated subcutaneously in the right sub-scapular region with 5×10^6 EBC-1 cells. […] Mice in Group 1 (control group) were treated with 100 μL vehicle control, methylcellulose tween (MCT), every day (QD) via oral gavage (PO) and were switched to drinking water containing 5% sucrose. […] Dox and sucrose water was changed every 2-3 days. Erlotinib and MCT were dosed for 14 days, stopped for 6 days and then resumed for the remainder of the study (20 days). […] All studies and handling of mice complied with the Institutional Animal Care and Use Committee (IACUC) guidelines. [table] Tumor and Body Weight Measurement. […] Fowler Company, Inc.; Newton, Mass.). The following formula was used with Excel v11.2 (Microsoft Corporation; Redmond, Wash.) to calculate tumor volume: […] Efficacy Data Analysis. Tumor inhibition was plotted using KaleidaGraph 3.6 (Synergy Software; Reading, Pa.). Percent growth inhibition (% Inh) at Day 17 was calculated as follows: […] Tumor incidence (TI) was determined by the number of measurable tumors in each group at Day 17. […] Mean tumor volume and standard error of the mean (SEM) were calculated using JMP software, version 5.1.2 (SAS Institute; Cary, N.C.). Data analysis and generation of p-values using either Student's t-test or the Dunnett's t-test was also done using JMP software, version 5.1.2. […] Mice were then grouped into four treatment arms; […] Vehicles, Group 2: Doxycycline (Dox), Group 3: erlotinib (100 mg/kg), and Group 4: erlotinib+Dox (See Table 6).

Assay [2] addresses c-met (as expressed in NCI-H596 cells) (human) (UniProt P08581). Description: cell-based or functional assay.
[3] abbreviates: 10 mice per group, any day during the study.

Consider `C[C@H]1c2cccc(O)c2C(=O)C2=C(O)[C@]3(O)C(=O)C(C(N)=O)=C(O)[C@@H](N(C)C)[C@@H]3[C@@H](O)[C@@H]21` [Dox, doxycycline], for which, in assay [1] (setting [3]), the “number of complete responses (CR; tumor regression of 100%)” value turned out to be 1 and the “number of partial responses (PR; tumor regression >50% but <100% of starting tumor volume)” value is on record as 2. Also, the “reduction in tumor growth compared to the vehicle control (tumor inhibition)” value in assay [1] (nude mice, day 19, erlotinib 100 mg/kg PO QD, Dox in drinking water) worked out at 38%.

For the compound “Anti-c-met monovalent monoclonal antibody MetMAb (rhuOA5D5v2)”, in assay [2], the pMet/total Met in NCI-H596 xenograft tumors, percent of vehicle control (immunoprecipitation and immunoblot, Li-Cor quantification) (% of vehicle control) turned out to be 12.
